Measured values from US9617256B2 (priority 2007, dated 2017).
Converted amounts (≈) assume the structure as drawn.

Assays:
[1] = system: AECO063 (ATCC25922 bearing an acrAB mutation); test: microbe, parasite or virus in culture; assay type: cell-based, E. coli; conditions: Escherichia coli, ATCC25922, read-out: MIC AECO063
How it was run: (§1)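 Strains were grown overnight at 35° C. on Mueller-Hinton agar, suspended to 0.5 McFarland and diluted to a final 3×10^5–7×10^5 CFU/mL. They were then exposed to 2-fold serial drug dilutions in cation-adjusted Mueller-Hinton broth and incubated 18-24 hours at 35° C.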

AECO001 (ATCC25922) = test: MIC broth microdilution, AECO001; assay type: cell-based, E. coli; conditions: Escherichia coli, ATCC25922, read-out: MIC AECO001
How it was run: as §1

[2] = system: APAE006 in the presence of 8 micrograms per milliliter of polymyxin B nonapeptide; assay type: cell-based, P. aeruginosa; conditions: in the presence of 8 micrograms per milliliter of polymyxin B nonapeptide
How it was run: (§2)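 MICs come from broth microdilution in cation-adjusted Mueller-Hinton broth, final inoculum 3×10^5–7×10^5 CFU/mL, 18-24 hours at 35° C. Levofloxacin and QC strains served as assay controls.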

AECO001 HSA AGP = test: MIC broth microdilution, AECO001 HSA AGP; assay type: cell-based, E. coli; conditions: Escherichia coli
How it was run: as §1

[3] = system: AABA1060 (clinical isolate of Acinetobacter baumannii); test: MIC broth microdilution, AABA1060; assay type: cell-based; conditions: Acinetobacter baumannii, read-out: MIC AABA1060
How it was run: as §1

[4] = system: ASAU001 (laboratory strain of S. aureus, ATCC29213); test: MIC broth microdilution, ASAU001; assay type: cell-based; conditions: Staphylococcus aureus, ATCC29213, read-out: MIC ASAU001
How it was run: as §1

APAE001 (ATCC27853) = test: MIC broth microdilution, APAE001; assay type: cell-based, P. aeruginosa; conditions: Pseudomonas aeruginosa, ATCC27853, read-out: MIC APAE001, APAE001 is ATCC27853
How it was run: as §1

[5] = system: APAE006 (strain of P. aeruginosa in which all efflux pumps are inactivated); test: microbe, parasite or virus in culture; assay type: cell-based; conditions: Pseudomonas aeruginosa, read-out: MIC APAE006, P. aeruginosa, all efflux pumps inactivated
How it was run: as §2

SMILES	MIC [1] [µg/mL]	MIC (AECO001 (ATCC25922)) [µg/mL]	MIC APAE006 + PMBN [2]	MIC (AECO001 HSA AGP) [µg/mL]	MIC [3] [µg/mL]	MIC [4] [µg/mL]	MIC (APAE001 (ATCC27853)) [µg/mL]	MIC [5] [µg/mL]
COC(C)[C@H](NC(=O)c1ccc(/C=C/C#Cc2ccc(CN3CCOCC3)cc2)cc1)C(=O)NO (stereo partly drawn) [Example 110-6]	< 2	< 2	A (MIC's of 2.0 μg/mL or less = A)	2 to 16 (≈ 4.19 to 33.5 µM)	2 to 16 (≈ 4.19 to 33.5 µM)	> 64	2 to 16 (≈ 4.19 to 33.5 µM)	< 2
C[C@@H](N)[C@H](NC(=O)c1ccc(/C=C/C#Cc2cccnc2)cc1)C(=O)NO [Example 114-9]	< 2	2 to 16 (≈ 5.49 to 43.9 µM)	A (MIC's of 2.0 μg/mL or less = A)	2 to 16 (≈ 5.49 to 43.9 µM)	2 to 16 (≈ 5.49 to 43.9 µM)	16 to 64 (≈ 43.9 to 176 µM)	< 2	< 2
O=C(N[C@H](C(=O)NO)c1ccsc1)c1ccc(C#Cc2ccc(CN3CCOCC3)cc2)cc1 [Example 67-8]	< 2	< 2	A (MIC's of 2.0 μg/mL or less = A)	2 to 16 (≈ 4.21 to 33.6 µM)	2 to 16 (≈ 4.21 to 33.6 µM)	> 64	2 to 16 (≈ 4.21 to 33.6 µM)	< 2
C[C@@H](NC(=O)CNC1CC1)[C@H](NC(=O)c1ccc(C#CC#Cc2ccccc2)cc1)C(=O)NO [Example 85-2]	< 2	< 2	A (MIC's of 2.0 μg/mL or less = A)	2 to 16 (≈ 4.36 to 34.9 µM)	16 to 64 (≈ 34.9 to 140 µM)	16 to 64 (≈ 34.9 to 140 µM)	2 to 16 (≈ 4.36 to 34.9 µM)	< 2
C[C@H](O)[C@H](NC(=O)c1ccc(C#C/C=C/c2ccc(CO)cc2)cc1)C(=O)NO [Example 101-4]	< 2	< 2	A (MIC's of 2.0 μg/mL or less = A)	2 to 16 (≈ 5.07 to 40.6 µM)	16 to 64 (≈ 40.6 to 162 µM)	16 to 64 (≈ 40.6 to 162 µM)	2 to 16 (≈ 5.07 to 40.6 µM)	< 2
C[C@H](N)[C@H](NC(=O)c1ccc(C#Cc2ccc(CNC3CC3)cc2)cc1)C(=O)NO [Example 133-3]	< 2	< 2	A (MIC's of 2.0 μg/mL or less = A)	2 to 16 (≈ 4.92 to 39.4 µM)	16 to 64 (≈ 39.4 to 157 µM)	> 64	< 2	< 2
CC(=O)NC[C@H](NC(=O)c1ccc(/C=C/C#Cc2ccc(CN3CCOCC3)cc2)cc1)C(=O)NO [Example 111-3, N-[2-acetylamino-1-((S)-hydroxycarbamoyl)-ethyl]-4-[(E)-4-(4-morpholin-4-ylmethyl-phenyl)-but-1-en-3-ynyl]-]	< 2	< 2	A (MIC's of 2.0 μg/mL or less = A)	2 to 16 (≈ 4.08 to 32.6 µM)	2 to 16 (≈ 4.08 to 32.6 µM)	> 64	2 to 16 (≈ 4.08 to 32.6 µM)	< 2
C[C@@H](O)[C@H](NC(=O)c1ccc(C2CCN(c3ccc(CN4CCOCC4)cc3)CC2)cc1)C(=O)NO [Example 41-5, N-((1S,2R)-2-Hydroxy-1-hydroxycarbamoyl-propyl)-4-[1-(4-morpholin-4-ylmethyl-phenyl)-piperidin-4-yl]-benzamide]	16 to 64 (≈ 32.2 to 129 µM)	> 64	A (MIC's of 2.0 μg/mL or less = A)	> 64	> 64	> 64	16 to 64 (≈ 32.2 to 129 µM)	< 2
C[C@@H](N)[C@H](NC(=O)c1ccc(/C=C/C#Cc2ccc(C(F)(F)F)cc2)cc1)C(=O)NO [Example 114-6]	< 2	< 2	A (MIC's of 2.0 μg/mL or less = A)	2 to 16 (≈ 4.64 to 37.1 µM)	2 to 16 (≈ 4.64 to 37.1 µM)	2 to 16 (≈ 4.64 to 37.1 µM)	2 to 16 (≈ 4.64 to 37.1 µM)	2 to 16 (≈ 4.64 to 37.1 µM)
C[C@@H](N)[C@H](NC(=O)c1ccc(C#Cc2cccnc2)cc1)C(=O)NO [Example 133-9]	2 to 16 (≈ 5.91 to 47.3 µM)	16 to 64 (≈ 47.3 to 189 µM)	A (MIC's of 2.0 μg/mL or less = A)	16 to 64 (≈ 47.3 to 189 µM)	16 to 64 (≈ 47.3 to 189 µM)	> 64	2 to 16 (≈ 5.91 to 47.3 µM)	< 2
C[C@H](O)[C@H](NC(=O)c1ccc(C#C/C=C/c2ccc(CNC3CC3)cc2)cc1)C(=O)NO [Example 102-4]	< 2	< 2	A (MIC's of 2.0 μg/mL or less = A)	2 to 16 (≈ 4.61 to 36.9 µM)	16 to 64 (≈ 36.9 to 148 µM)	> 64	2 to 16 (≈ 4.61 to 36.9 µM)	< 2
C[C@@H](N)[C@H](NC(=O)c1ccc(C#Cc2ccc(CNCCC#N)cc2)cc1)C(=O)NO [Example 118-8]	< 2	< 2	A (MIC's of 2.0 μg/mL or less = A)	2 to 16 (≈ 4.77 to 38.1 µM)	2 to 16 (≈ 4.77 to 38.1 µM)	16 to 64 (≈ 38.1 to 153 µM)	< 2	< 2
CC(C)(O)[C@H](NC(=O)c1ccc(C#C/C=C/c2ccccc2)cc1)C(=O)NO [Example 104-3]	< 2	< 2	A (MIC's of 2.0 μg/mL or less = A)	2 to 16 (≈ 5.29 to 42.3 µM)	< 2	16 to 64 (≈ 42.3 to 169 µM)	< 2	< 2
C[C@@H](O)[C@H](NC(=O)c1ccc(/C=C\C#Cc2ccc(CN3CCOCC3)cc2)cc1)C(=O)NO [Example 30-12b]	< 2	2 to 16 (≈ 4.31 to 34.5 µM)	A (MIC's of 2.0 μg/mL or less = A)	16 to 64 (≈ 34.5 to 138 µM)	16 to 64 (≈ 34.5 to 138 µM)	> 64	2 to 16 (≈ 4.31 to 34.5 µM)	< 2
O=CN(O)CCNC(=O)c1ccc(C#Cc2ccc(CN3CCOCC3)cc2)cc1 [Example 127-1, N-[2-(Formyl-hydroxyamino)-ethyl]-4-(4-morpholin-4-ylmethyl-phenylethynyl)-benzamide]	2 to 16 (≈ 4.91 to 39.3 µM)	16 to 64 (≈ 39.3 to 157 µM)	C (MIC's of greater than 16.0 μg/mL to 64.0 μg/mL = C)	16 to 64 (≈ 39.3 to 157 µM)	> 64	> 64	> 64	16 to 64 (≈ 39.3 to 157 µM)
C[C@@H](N)[C@H](NC(=O)c1ccc(C#Cc2ccc(CNC3CC3)cc2)cc1)C(=O)NO [Example 115-2]	< 2	< 2	A (MIC's of 2.0 μg/mL or less = A)	2 to 16 (≈ 4.92 to 39.4 µM)	2 to 16 (≈ 4.92 to 39.4 µM)	> 64	< 2	< 2
C[C@@H](NC(=O)CNC1CC1)[C@H](NC(=O)c1ccc(C#Cc2ccc(CN3CCOCC3)cc2)cc1)C(=O)NO [Example 137-2]	< 2	< 2	A (MIC's of 2.0 μg/mL or less = A)	2 to 16 (≈ 3.75 to 30 µM)	16 to 64 (≈ 30 to 120 µM)	> 64	2 to 16 (≈ 3.75 to 30 µM)	< 2
C[C@@H](N)[C@H](NC(=O)c1ccc(C#Cc2ccc(CN3CCC(F)(F)CC3)cc2)cc1)C(=O)NO [Example 115-3]	< 2	< 2	A (MIC's of 2.0 μg/mL or less = A)	< 2	2 to 16 (≈ 4.25 to 34 µM)	> 64	2 to 16 (≈ 4.25 to 34 µM)	< 2
CNC(=O)[C@@H](NC(=O)c1ccc(C#Cc2ccc(CN3CCOCC3)cc2)cc1)[C@@H](C)N [Example 117-1, N-((1S,2R)-2-Amino-1-methylcarbamoyl-propyl)-4-(4-morpholin-4-ylmethyl-phenylethynyl)-benzamide]	> 64	> 64	D (MIC's of greater than 64.0 μg/mL = D)	> 64	> 64	> 64	> 64	> 64
Cn1cncc1C#CC#Cc1ccc(C(=O)N[C@H](C(=O)NO)C(C)(C)O)cc1 [Example 88-10]	< 2	< 2	A (MIC's of 2.0 μg/mL or less = A)	2 to 16 (≈ 5.26 to 42.1 µM)	2 to 16 (≈ 5.26 to 42.1 µM)	16 to 64 (≈ 42.1 to 168 µM)	2 to 16 (≈ 5.26 to 42.1 µM)	< 2
CC(C)(O)[C@H](NC(=O)c1ccc(C#CC#Cc2ccc(CO)cc2)cc1)C(=O)NO [Example 82-15]	< 2	< 2	A (MIC's of 2.0 μg/mL or less = A)	16 to 64 (≈ 39.4 to 157 µM)	< 2	16 to 64 (≈ 39.4 to 157 µM)	< 2	< 2
C[C@@H](N)[C@H](NC(=O)c1ccc(C#CC#Cc2ccc(F)cc2)cc1)C(=O)NO [Example 82-12]	< 2	< 2	A (MIC's of 2.0 μg/mL or less = A)	2 to 16 (≈ 5.27 to 42.2 µM)	2 to 16 (≈ 5.27 to 42.2 µM)	16 to 64 (≈ 42.2 to 169 µM)	2 to 16 (≈ 5.27 to 42.2 µM)	< 2
C[C@@H](N)[C@H](NC(=O)c1ccc(C#Cc2ccc(CN3CCCOCC3)cc2)cc1)C(=O)NO [Example 118-7]	< 2	< 2	A (MIC's of 2.0 μg/mL or less = A)	2 to 16 (≈ 4.44 to 35.5 µM)	2 to 16 (≈ 4.44 to 35.5 µM)	16 to 64 (≈ 35.5 to 142 µM)	< 2	< 2
COCc1ccc(C#C/C=C/c2ccc(C(=O)N[C@H](C(=O)NO)[C@@H](C)N)cc2)cc1 [Example 113-9]	< 2	< 2	A (MIC's of 2.0 μg/mL or less = A)	2 to 16 (≈ 4.91 to 39.3 µM)	< 2	16 to 64 (≈ 39.3 to 157 µM)	< 2	< 2
